The values that follow come from patent publication US6310043A (priority 1999, dated 2001).

As a reminder, the IC50 is the concentration needed to halve the response being measured.

Holding throughout (format): binding, E. coli
The target of one test is SLT-1 (VT-1) (Bacteriophage H30, UniProt P69178).
Another test has as its target SLT-1 (Verotoxin I) (Bacteriophage H30, UniProt P69178). Put plainly: biochemical. The following applies: for IC50: read-out: IC50.
A further test addresses SLT-2 (VT-2) (Escherichia phage 933W, UniProt P09386).
The mark [1] stands for this setting: solid phase assays, protocol A or B.

Molecules are shown by their SMILES.

Sequence of SLT-1 (VT-1) (P69178 whole entry, looked up): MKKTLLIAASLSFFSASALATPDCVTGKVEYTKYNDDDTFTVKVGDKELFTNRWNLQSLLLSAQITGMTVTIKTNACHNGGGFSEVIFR
Sequence of SLT-1 (Verotoxin I) (P69178 whole entry, looked up): as above
Sequence of SLT-2 (VT-2) (P09386 whole entry, looked up): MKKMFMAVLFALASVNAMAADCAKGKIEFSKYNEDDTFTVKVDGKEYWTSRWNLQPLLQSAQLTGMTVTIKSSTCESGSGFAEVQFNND

Regarding `CO[C@@H]1O[C@H](CO)[C@@H](O[C@@H]2O[C@H](CO)[C@H](O[C@H]3O[C@H](CO)[C@H](O)[C@H](O)[C@H]3O)[C@H](O)[C@H]2OCCOC(=O)NCCCCCCCCNc2c(NCCNC(=O)CSCCCO[C@@H]3[C@@H](OCCCSCC(=O)NCCNc4c(NCCCCCCCCNC(=O)OCCO[C@H]5[C@H](O[C@H]6[C@H](O)[C@@H](O)[C@H](OC)O[C@@H]6CO)O[C@H](CO)[C@H](O[C@H]6O[C@H](CO)[C@H](O)[C@H](O)[C@H]6O)[C@@H]5O)c(=O)c4=O)[C@H](OC)O[C@H](CO)[C@H]3OCCCSCC(=O)NCCNc3c(NCCCCCCCCNC(=O)OCCO[C@H]4[C@H](O[C@H]5[C@H](O)[C@@H](O)[C@H](OC)O[C@@H]5CO)O[C@H](CO)[C@H](O[C@H]5O[C@H](CO)[C@H](O)[C@H](O)[C@H]5O)[C@@H]4O)c(=O)c3=O)c(=O)c2=O)[C@H](O)[C@H]1O` [Compound 27], the IC50 on SLT-1 (VT-1) is 13600 nM; at SLT-1 (Verotoxin I), 3500 nM. In addition, the “relative inhibition of SLT-1 binding to P^k ligand (in words)” value on SLT-1 (Verotoxin I) (setting [1]) was “the activity drops by several orders of magnitude”.

As to `CO[C@@H]1O[C@H](CO)[C@@H](O[C@@H]2O[C@H](CO)[C@H](O[C@H]3O[C@H](CO)[C@H](O)[C@H](O)[C@H]3O)[C@H](O)[C@H]2OCCOC(=O)NCCCCCCCCNc2c(NCCNC(=O)CSCCCOC[C@H]3O[C@@H](OCCCSCC(=O)NCCNc4c(NCCCCCCCCNC(=O)OCCO[C@H]5[C@H](O[C@H]6[C@H](O)[C@@H](O)[C@H](OC)O[C@@H]6CO)O[C@H](CO)[C@H](O[C@H]6O[C@H](CO)[C@H](O)[C@H](O)[C@H]6O)[C@@H]5O)c(=O)c4=O)[C@H](OCCCSCC(=O)NCCNc4c(NCCCCCCCCNC(=O)OCCO[C@H]5[C@H](O[C@H]6[C@H](O)[C@@H](O)[C@H](OC)O[C@@H]6CO)O[C@H](CO)[C@H](O[C@H]6O[C@H](CO)[C@H](O)[C@H](O)[C@H]6O)[C@@H]5O)c(=O)c4=O)[C@@H](OCCCSCC(=O)NCCNc4c(NCCCCCCCCNC(=O)OCCO[C@H]5[C@H](O[C@H]6[C@H](O)[C@@H](O)[C@H](OC)O[C@@H]6CO)O[C@H](CO)[C@H](O[C@H]6O[C@H](CO)[C@H](O)[C@H](O)[C@H]6O)[C@@H]5O)c(=O)c4=O)[C@@H]3OCCCSCC(=O)NCCNc3c(NCCCCCCCCNC(=O)OCCO[C@H]4[C@H](O[C@H]5[C@H](O)[C@@H](O)[C@H](OC)O[C@@H]5CO)O[C@H](CO)[C@H](O[C@H]5O[C@H](CO)[C@H](O)[C@H](O)[C@H]5O)[C@@H]4O)c(=O)c3=O)c(=O)c2=O)[C@H](O)[C@H]1O` [Compound 25], the 50% inhibitory concentration (IC50) turned out to be 1230 nM at SLT-1 (VT-1) and 24 nM on SLT-1 (Verotoxin I). Besides, on SLT-1 (Verotoxin I) (solid phase assays, protocol A or B, SLT-1), the “fold less active when compared to 22” value was 500-1000 fold.

`CO[C@@H]1O[C@H](CO)[C@@H](O[C@@H]2O[C@H](CO)[C@H](O[C@H]3O[C@H](CO)[C@H](O)[C@H](O)[C@H]3O)[C@H](O)[C@H]2OCCOC(=O)NCC(CNC(=O)OCCO[C@H]2[C@H](O[C@H]3[C@H](O)[C@@H](O)[C@H](OC)O[C@@H]3CO)O[C@H](CO)[C@H](O[C@H]3O[C@H](CO)[C@H](O)[C@H](O)[C@H]3O)[C@@H]2O)OC(=O)NCCCCCCCCNc2c(NCCNC(=O)CSCCCOC[C@H]3O[C@@H](OC)[C@H](OCCCSCC(=O)NCCNc4c(NCCCCCCCCNC(=O)OC(CNC(=O)OCCO[C@H]5[C@H](O[C@H]6[C@H](O)[C@@H](O)[C@H](OC)O[C@@H]6CO)O[C@H](CO)[C@H](O[C@H]6O[C@H](CO)[C@H](O)[C@H](O)[C@H]6O)[C@@H]5O)CNC(=O)OCCO[C@H]5[C@H](O[C@H]6[C@H](O)[C@@H](O)[C@H](OC)O[C@@H]6CO)O[C@H](CO)[C@H](O[C@H]6O[C@H](CO)[C@H](O)[C@H](O)[C@H]6O)[C@@H]5O)c(=O)c4=O)[C@@H](OCCCSCC(=O)NCCNc4c(NCCCCCCCCNC(=O)OC(CNC(=O)OCCO[C@H]5[C@H](O[C@H]6[C@H](O)[C@@H](O)[C@H](OC)O[C@@H]6CO)O[C@H](CO)[C@H](O[C@H]6O[C@H](CO)[C@H](O)[C@H](O)[C@H]6O)[C@@H]5O)CNC(=O)OCCO[C@H]5[C@H](O[C@H]6[C@H](O)[C@@H](O)[C@H](OC)O[C@@H]6CO)O[C@H](CO)[C@H](O[C@H]6O[C@H](CO)[C@H](O)[C@H](O)[C@H]6O)[C@@H]5O)c(=O)c4=O)[C@@H]3OCCCSCC(=O)NCCNc3c(NCCCCCCCCNC(=O)OC(CNC(=O)OCCO[C@H]4[C@H](O[C@H]5[C@H](O)[C@@H](O)[C@H](OC)O[C@@H]5CO)O[C@H](CO)[C@H](O[C@H]5O[C@H](CO)[C@H](O)[C@H](O)[C@H]5O)[C@@H]4O)CNC(=O)OCCO[C@H]4[C@H](O[C@H]5[C@H](O)[C@@H](O)[C@H](OC)O[C@@H]5CO)O[C@H](CO)[C@H](O[C@H]5O[C@H](CO)[C@H](O)[C@H](O)[C@H]5O)[C@@H]4O)c(=O)c3=O)c(=O)c2=O)[C@H](O)[C@H]1O` [Compound 23]: the figures for the concentration for half-maximal inhibition (IC50) against SLT-1 (VT-1), against SLT-2 (VT-2) and on SLT-1 (Verotoxin I) were 3.3 nM, 9 nM and 1.6 nM, respectively.

For the compound `CO[C@@H]1O[C@H](CO)[C@@H](O[C@@H]2O[C@H](CO)[C@H](O[C@H]3O[C@H](CO)[C@H](O)[C@H](O)[C@H]3O)[C@H](O)[C@H]2OCCOC(=O)NCCCCCCCCNc2c(NCCNC(=O)CSCCCOC[C@H]3O[C@@H](OC)[C@H](OCCCSCC(=O)NCCNc4c(NCCCCCCCCNC(=O)OCCO[C@H]5[C@H](O[C@H]6[C@H](O)[C@@H](O)[C@H](OC)O[C@@H]6CO)O[C@H](CO)[C@H](O[C@H]6O[C@H](CO)[C@H](O)[C@H](O)[C@H]6O)[C@@H]5O)c(=O)c4=O)[C@@H](OCCCSCC(=O)NCCNc4c(NCCCCCCCCNC(=O)OCCO[C@H]5[C@H](O[C@H]6[C@H](O)[C@@H](O)[C@H](OC)O[C@@H]6CO)O[C@H](CO)[C@H](O[C@H]6O[C@H](CO)[C@H](O)[C@H](O)[C@H]6O)[C@@H]5O)c(=O)c4=O)[C@@H]3OCCCSCC(=O)NCCNc3c(NCCCCCCCCNC(=O)OCCO[C@H]4[C@H](O[C@H]5[C@H](O)[C@@H](O)[C@H](OC)O[C@@H]5CO)O[C@H](CO)[C@H](O[C@H]5O[C@H](CO)[C@H](O)[C@H](O)[C@H]5O)[C@@H]4O)c(=O)c3=O)c(=O)c2=O)[C@H](O)[C@H]1O` [Compound 26], the IC50 at SLT-1 (VT-1) stood at 3400 nM; at SLT-1 (Verotoxin I) it was 350 nM. For the same compound, the “relative inhibition of SLT-1 binding to P^k ligand (in words)” value at SLT-1 (Verotoxin I) (setting [1]) is recorded as “the activity drops by several orders of magnitude”.

Consider `CO[C@@H]1O[C@H](CO)[C@@H](O[C@@H]2O[C@H](CO)[C@H](O[C@H]3O[C@H](CO)[C@H](O)[C@H](O)[C@H]3O)[C@H](O)[C@H]2OCCOC(=O)NCC(CNC(=O)OCCO[C@H]2[C@H](O[C@H]3[C@H](O)[C@@H](O)[C@H](OC)O[C@@H]3CO)O[C@H](CO)[C@H](O[C@H]3O[C@H](CO)[C@H](O)[C@H](O)[C@H]3O)[C@@H]2O)OC(=O)NCCCCCCCCNc2c(NCCNC(=O)CSCCCOC[C@H]3O[C@@H](OCCCSCC(=O)NCCNc4c(NCCCCCCCCNC(=O)OC(CNC(=O)OCCO[C@H]5[C@H](O[C@H]6[C@H](O)[C@@H](O)[C@H](OC)O[C@@H]6CO)O[C@H](CO)[C@H](O[C@H]6O[C@H](CO)[C@H](O)[C@H](O)[C@H]6O)[C@@H]5O)CNC(=O)OCCO[C@H]5[C@H](O[C@H]6[C@H](O)[C@@H](O)[C@H](OC)O[C@@H]6CO)O[C@H](CO)[C@H](O[C@H]6O[C@H](CO)[C@H](O)[C@H](O)[C@H]6O)[C@@H]5O)c(=O)c4=O)[C@H](OCCCSCC(=O)NCCNc4c(NCCCCCCCCNC(=O)OC(CNC(=O)OCCO[C@H]5[C@H](O[C@H]6[C@H](O)[C@@H](O)[C@H](OC)O[C@@H]6CO)O[C@H](CO)[C@H](O[C@H]6O[C@H](CO)[C@H](O)[C@H](O)[C@H]6O)[C@@H]5O)CNC(=O)OCCO[C@H]5[C@H](O[C@H]6[C@H](O)[C@@H](O)[C@H](OC)O[C@@H]6CO)O[C@H](CO)[C@H](O[C@H]6O[C@H](CO)[C@H](O)[C@H](O)[C@H]6O)[C@@H]5O)c(=O)c4=O)[C@@H](OCCCSCC(=O)NCCNc4c(NCCCCCCCCNC(=O)OC(CNC(=O)OCCO[C@H]5[C@H](O[C@H]6[C@H](O)[C@@H](O)[C@H](OC)O[C@@H]6CO)O[C@H](CO)[C@H](O[C@H]6O[C@H](CO)[C@H](O)[C@H](O)[C@H]6O)[C@@H]5O)CNC(=O)OCCO[C@H]5[C@H](O[C@H]6[C@H](O)[C@@H](O)[C@H](OC)O[C@@H]6CO)O[C@H](CO)[C@H](O[C@H]6O[C@H](CO)[C@H](O)[C@H](O)[C@H]6O)[C@@H]5O)c(=O)c4=O)[C@@H]3OCCCSCC(=O)NCCNc3c(NCCCCCCCCNC(=O)OC(CNC(=O)OCCO[C@H]4[C@H](O[C@H]5[C@H](O)[C@@H](O)[C@H](OC)O[C@@H]5CO)O[C@H](CO)[C@H](O[C@H]5O[C@H](CO)[C@H](O)[C@H](O)[C@H]5O)[C@@H]4O)CNC(=O)OCCO[C@H]4[C@H](O[C@H]5[C@H](O)[C@@H](O)[C@H](OC)O[C@@H]5CO)O[C@H](CO)[C@H](O[C@H]5O[C@H](CO)[C@H](O)[C@H](O)[C@H]5O)[C@@H]4O)c(=O)c3=O)c(=O)c2=O)[C@H](O)[C@H]1O` [Compound 22], for which the concentration for half-maximal inhibition (IC50) is 0.4 nM against SLT-1 (VT-1), 6 nM on SLT-2 (VT-2) and 0.23 nM at SLT-1 (Verotoxin I). On SLT-1 (Verotoxin I) (ELISA, VT-I), the “activity relative to the Pk trisaccharide alone” value is “about a million times more active than the trisaccharide alone”. In addition, the “activity relative to the bridged trisaccharide dimer” value on SLT-1 (Verotoxin I) (similar ELISA, FIG. 5) is “about 10,000 times”. Besides, the “relative inhibition of SLT-1 binding to P^k ligand (in words)” value at SLT-1 (Verotoxin I) (setting [1]) was “by far the most active inhibitor of SLT-1 binding to P^k ligand”.
